Data taken from ChEMBL document CHEMBL5223072, “A look around the West Indies: The spices of life are secondary metabolites” (Bioorg Med Chem, 2020).
Converted amounts (≈) assume the structure as drawn.

Experiments:
SK-OV-3 = assay: Antiproliferative activity against human SK-OV-3 cells assessed as cell growth inhibition measured for 72 hrs; assay type: functional, cell-based; conditions: SK-OV-3, 72 h
P388 [1] = assay: Antiproliferative activity against mouse P388 cells assessed as cell growth inhibition; assay type: functional, cell-based
A549 [2] = assay: Antiproliferative activity against human A549 cells assessed as cell growth inhibition measured for 72 hrs; assay type: functional, cell-based; conditions: A549, 72 h
Staphylococcus aureus [3] = assay: Antibacterial activity against Staphylococcus aureus SH1000 cultured in iron rich media assessed as reduction in bacterial cell growth; assay type: functional
Staphylococcus aureus [4] = assay: Antibacterial activity against Staphylococcus aureus SH1000 cultured in iron depleted media assessed as reduction in bacterial cell growth; assay type: functional
Streptococcus [5] = assay: Antibiofilm activity against Streptococcus assessed as inhibition of biofilm maturation; assay type: functional, organism-based
A549 [6] = assay: Antiproliferative activity against human A549 cells assessed as cell viability by WST-8 colorimetric assay; assay type: functional, cell-based
[7] = Activation of hypoxia-induced HIF-1 in human T47D cells; assay type: cell-based
[8] = Inhibition of sodium channel (unknown origin); parameters: species or system Homo sapiens
Plasmodium falciparum [9] = assay: Antimalarial activity against Plasmodium falciparum D6 assessed as reduction in parasite growth; assay type: functional
Plasmodium falciparum [10] = assay: Antimalarial activity against Plasmodium falciparum W2 assessed as reduction in parasite growth; assay type: functional
Candida albicans [11] = assay: Antifungal activity against Candida albicans as reduction in fungal growth; assay type: functional, organism-based
[12] = Inhibition of Saccharomyces cerevisiae 20S proteosome
NCI-H460 = assay: Cytotoxicity against human NCI-H460 cells assessed as reduction in cell viability; assay type: functional, cell-based
HCT-116 = assay: Cytotoxicity against human HCT-116 cells assessed as reduction in cell viability; assay type: functional, cell-based
MAXF401 cell line = assay: Cytotoxicity against human NCI-MAXF401 cells assessed as reduction in cell viability; assay type: functional, cell-based
OVCAR-3 = assay: Cytotoxicity against human OVCAR-3 cells assessed as reduction in cell viability; assay type: functional, cell-based
[13] = Cytotoxicity against human bladder carcinoma cell assessed as reduction in cell viability; assay type: functional, cell-based
Leishmania donovani = assay: Antileishmanial activity against Leishmania donovani assessed as parasite growth inhibition; assay type: functional, organism-based
Candida albicans [14] = assay: Antifungal activity against Candida albicans; assay type: functional
Streptococcus [15] = assay: Antibacterial activity against Streptococcus; assay type: functional
P388 [16] = assay: Antiproliferative activity against mouse P388 cells assessed as cell viability by WST-8 colorimetric assay; assay type: functional, cell-based
MCF7 = assay: Antiproliferative activity against human MCF7 cells assessed as cell viability by WST-8 colorimetric assay; assay type: functional, cell-based

C=C/C=C\[C@H](C)[C@H](OC(N)=O)[C@@H](C)[C@H](O)[C@@H](C)C/C(C)=C\[C@H](C)[C@@H](O)[C@@H](C)/C=C\[C@@H](O)C[C@@H]1OC(=O)[C@H](C)[C@@H](O)[C@H]1C [DISERMOLIDE]
IC50 (SK-OV-3): 6.1 nM | IC50 (P388 [1]): 0.5 µg/mL (≈ 0.842 µM) | IC50 (A549 [2]): 1.8 nM

CCCC(=O)[C@@H](C)C[C@@H](C)C[C@@H](C)CC[C@H](O)C[C@H](O)[C@H](CC(C)C)[C@H](O)c1cc(O)cc(O)c1
MIC (Staphylococcus aureus [3]): 63 µM (≈ 31.2 µg/mL) | MIC (Staphylococcus aureus [4]): 63 µM (≈ 31.2 µg/mL)

C[C@H]1/C=C/[C@H]2OC(C)(C)O[C@H]2C(=O)O[C@H](c2cccc(CCCCC(=O)O)c2)[C@@H](C)/C=C/C1
IC50 (Streptococcus [5]): 63000 nM

CCCCCCOC(=O)C[C@H]1C[C@H](OC(=O)/C=C\CCc2coc(/C=C\CNC(=O)OC)n2)C[C@@H](/C=C/c2ccccc2)O1
IC50 (A549 [6]): 1.6 nM

C=C[C@@H]1CSC(C[C@@H](C)[C@@H](C)C[C@H](C)CCN(C)C(=O)[C@H](C)CC)=N1
IC50 [7]: 5.6 nM

CC(C)C[C@H]([C@H](O)c1cc(O)cc(O)c1)[C@@H](O)C[C@@H](O)CC[C@H](C)C[C@H](C)C[C@H](C)CO
MIC (Staphylococcus aureus [3]): 500 µM (≈ 227 µg/mL) | MIC (Staphylococcus aureus [4]): 500 µM (≈ 227 µg/mL)

C#CCCC/C(=C\Cl)CCC(C)/C=C/CCC(=O)NCC/C(=C\C(=O)N1C(=O)C=C[C@@H]1C)OC (some centres not stated)
IC50 [8]: 5000 nM

CC(C)=CCC[C@H](C)c1ccc(C)cc1O
MIC (Plasmodium falciparum [9]): 1.8 µg/mL (≈ 8.24 µM) | MIC (Plasmodium falciparum [10]): 3.6 µg/mL (≈ 16.5 µM)

CCC(=O)[C@@H](C)C[C@@H](C)C[C@@H](C)CC[C@H](O)C[C@H](O)[C@H](CC(C)C)[C@H](O)c1cc(O)cc(O)c1
MIC (Staphylococcus aureus [3]): 125 µM (≈ 60.1 µg/mL) | MIC (Staphylococcus aureus [4]): 125 µM (≈ 60.1 µg/mL)

CC(=O)O[C@H]1C(=O)[C@@]2(C)[C@H]([C@H](OC(=O)c3ccccc3)[C@]3(O)C[C@H](OC(=O)[C@H](O)[C@@H](NC(=O)c4ccccc4)c4ccccc4)C(C)=C1C3(C)C)[C@]1(OC(C)=O)CO[C@@H]1C[C@@H]2O [PACLITAXEL]
IC50 (SK-OV-3): 31.3 nM | IC50 (A549 [2]): 3.8 nM

CC(=O)O[C@@H]1c2nc(cs2)C(=O)O[C@@H](CCCC(C)(Cl)Cl)[C@H](C)C(=O)O[C@@H](C(C)(C)O)c2nc(cs2)C(=O)OC1(C)C [HECTOCHLORIN]
IC50 (Candida albicans [11]): 20 nM

CCCCCC(=O)N[C@H](C(=O)N[C@@H](CCS(C)(=O)=O)C(=O)N[C@@H](CC(C)C)C(=O)[C@@]1(C)CO1)C(C)C
IC50 [12]: 2.6 nM | EC50 (NCI-H460): 6 nM | EC50 (HCT-116): 43 nM

CCC(=O)[C@@H](C)C[C@@H](C)C[C@@H](C)CC[C@H](O)CC(=O)[C@H](CC(C)C)[C@H](O)c1cc(O)cc(O)c1
MIC (Staphylococcus aureus [3]): 63 µM (≈ 30.2 µg/mL) | MIC (Staphylococcus aureus [4]): 63 µM (≈ 30.2 µg/mL)

CCC(=O)[C@@H](C)C[C@@H](C)C[C@@H](C)CC[C@H](O)C[C@H](O)[C@@H](CC(C)C)[C@H](O)c1cc(O)cc(O)c1
MIC (Staphylococcus aureus [3]): 125 µM (≈ 60.1 µg/mL) | MIC (Staphylococcus aureus [4]): 125 µM (≈ 60.1 µg/mL)

CCCCCCCCCC[C@H](O)C[C@H](O)[C@H](CC(C)C)[C@H](O)c1cc(O)cc(O)c1
MIC (Staphylococcus aureus [3]): 8 µM (≈ 3.4 µg/mL) | MIC (Staphylococcus aureus [4]): 8 µM (≈ 3.4 µg/mL)

CC1=CC[C@H]2[C@](C)(CO)CCC[C@]2(C)[C@H]1C[C@@]12O[C@@H]1C(=O)C(CO)=C[C@H]2O [EPOXYPHOLAMIN A]
IC50 (MAXF401 cell line): 0.01 µg/mL (≈ 0.0266 µM) | IC50 (OVCAR-3): 0.017 µg/mL (≈ 0.0452 µM) | IC50 [13]: 0.017 µg/mL (≈ 0.0452 µM)

CC(=O)[C@@H](C)C[C@@H](C)C[C@@H](C)CC[C@H](O)C[C@H](O)[C@H](CC(C)C)[C@H](O)c1cc(O)cc(O)c1
MIC (Staphylococcus aureus [3]): 500 µM (≈ 233 µg/mL) | MIC (Staphylococcus aureus [4]): 500 µM (≈ 233 µg/mL)

CC[C@H](O)C[C@H](O)[C@H](CC(C)C)[C@H](O)c1cc(O)cc(O)c1
MIC (Staphylococcus aureus [3]): > 500 µM | MIC (Staphylococcus aureus [4]): > 500 µM

CC(C)=CCC[C@H](C)c1ccc(C)cc1OC(=O)c1ccncc1
IC50 (Leishmania donovani): 600 nM

CO/C(=C/C(=O)N1C(=O)C=C[C@@H]1C)CCNC(=O)CC/C=C/C(C)CC/C(=C/Cl)CCCC#CBr (some centres not stated)
IC50 [8]: 5000 nM

CCC(=O)[C@@H](C)C[C@@H](C)C[C@@H](C)CC[C@H](O)C[C@H](O)[C@H](CC(C)C)[C@H](O)c1cc(OC)cc(OC)c1
MIC (Staphylococcus aureus [3]): > 500 µM | MIC (Staphylococcus aureus [4]): > 500 µM

CCC(=O)CCCCCCC[C@H](O)C[C@H](O)[C@H](CC(C)C)[C@H](O)c1cc(O)cc(O)c1
MIC (Staphylococcus aureus [3]): > 500 µM | MIC (Staphylococcus aureus [4]): 250 µM (≈ 110 µg/mL)

C=CCCC/C(=C\Cl)CCC(C)/C=C/CCC(=O)NCC/C(=C\C(=O)N1C(=O)C=C[C@@H]1C)OC (some centres not stated)
IC50 [8]: 5000 nM

CCCCCC(=O)N[C@H](C(=O)N[C@@H](CC[S+](C)[O-])C(=O)N[C@@H](CC(C)C)C(=O)[C@@]1(C)CO1)C(C)C (some centres not stated)
IC50 [12]: 2.5 nM | EC50 (NCI-H460): 9 nM | EC50 (HCT-116): 19 nM

CO[C@H]1[S+]([O-])/C2=C\C(=O)[C@](C)(O[C@H]3CC[C@H](N(C)C)[C@@H](C)O3)[C@H](O)CC/C(C)=C\[C@@H]3[C@@H](C)[C@](C)(Cl)[C@@H](C[C@H]3O[C@H]3CC[C@H](N(C)C)[C@@H](C)O3)OC(=O)[C@@H]3CSC(=N3)[C@]1(C)N2 (some centres not stated)
MIC (Candida albicans [14]): 16 µg/mL (≈ 17.7 µM)

C[C@H]1/C=C/[C@H]2OC(C)(C)O[C@H]2C(=O)O[C@H](CCCCCCCC(=O)O)[C@@H](C)CCC1
IC50 (Streptococcus [5]): 44000 nM | MIC (Streptococcus [15]): 250 µM (≈ 106 µg/mL)

CCC[C@H]1C[C@@H](OC)C[C@H](C)C[C@@H]2C[C@@H](OC(=O)/C=C\CCc3coc(/C=C\CNC(=O)OC)n3)C[C@H](CC(=O)O1)O2
IC50 (P388 [16]): 0.72 nM | IC50 (A549 [6]): 43.9 nM | IC50 (MCF7): 33 nM

C=C/C=C\[C@H](C)[C@H](OC(N)=O)[C@@H](C)[C@H](O)[C@@H](C)C/C(C)=C\[C@H](C)[C@@H](O)[C@@H](C)/C=C\[C@@H](O)C[C@@H]1OC(=O)C(C)=C[C@H]1C
IC50 (SK-OV-3): 6.1 nM | IC50 (A549 [2]): 1.8 nM
